Reference: paper PMC11843658 (Journal of Enzyme Inhibition and Medicinal Chemistry, 2025)

Key:
C42B cells = experiment: CCK8 assay, C42B prostate cancer cells; format: cell-based; conditions: Homo sapiens, 10 μM, 48 h, read-out: cell viability rate
Description: (§1) C42B, PC3, Caco-2, HepG2, MCF7, HL-60, 8505 C, OVCAR-3, and A549 were cultured to screen the broad-spectrum antiproliferative activity of compound 14. For above cell lines, three thousand cells per well were seeded in the 96-well plate and treated by compound 14 for 48 or 72 h at different concentrations (0, 5, 10, and 20 μM). In addition, HepG2, HEP3B, HUH6, and HUH7 were cultured to screen its antiproliferative activity against liver cancer cell lines. For these liver cancer cell lines, two thousand cells per well were seeded in the 96-well plate and treated by compound 14 for 48 h at different concentrations (0, 0.625, 1.25, 2.5, and 5 μM). Then, 10 μl of CCK8 was added into each well and cells were incubated in a humidified atmosphere of 5% CO2 at 37 °C for 4 h. The 96-well plate was measured with a microplate reader (Bio-Tek, San Diego, CA) at a wavelength of 450 nm to calculate IC50 values.

PC3 cells = experiment: CCK8 assay, PC3 prostate cancer cells; format: cell-based; conditions: Homo sapiens, PC-3, 10 μM, 48 h, read-out: cell viability rate
Description: as §1

Caco-2 cells = experiment: CCK8 assay, Caco-2 colon cancer cells; format: cell-based; conditions: Homo sapiens, 10 μM, 48 h, read-out: cell viability rate
Description: as §1

HepG2 cells [1] = experiment: CCK8 assay, HepG2 liver cancer cells; format: cell-based; conditions: Homo sapiens
Description: as §1

MCF7 cells = experiment: CCK8 assay, MCF7 breast cancer cells; format: cell-based; conditions: Homo sapiens, 10 μM, 48 h, read-out: cell viability rate
Description: as §1

8505 C cells = experiment: CCK8 assay, 8505 C thyroid cancer cells; format: cell-based; conditions: Homo sapiens, 10 μM, 48 h, read-out: cell viability rate
Description: as §1

OVCAR-3 cells = experiment: CCK8 assay, OVCAR-3 ovarian cancer cells; format: cell-based; conditions: Homo sapiens, 10 μM, 48 h, read-out: cell viability rate
Description: as §1

A549 cells = experiment: CCK8 assay, A549 lung cancer cells; format: cell-based; conditions: Homo sapiens, 10 μM, 48 h, read-out: cell viability rate
Description: as §1

HUH7 cells = experiment: CCK8 assay, HUH7 liver cancer cells; format: cell-based; conditions: Homo sapiens, Huh-7, CCK8, 48 h, 0-5 μM, read-out: IC50, antiproliferative activity
Description: as §1

MAO-A = biological target: T1, MAO-A (Homo sapiens, UniProt P21397); experiment: Inhibitory activity against MAO-A (kynuramine); format: biochemical; conditions: tested at 250, 500, and 1000 nM
T1 construct: purchased Servicebio (Wuhan, China)
Description: (§2) In order to analyse the enzymatic selectivity of compound 14, MAO-A/B was purchased from Servicebio (Wuhan, China). MAO-A was dissolved in phosphate buffer (0.1 M, pH = 7.4) to get MAO-A enzymatic buffer with a concentration of 0.006 mg/ml. MAO-B was also dissolved in phosphate buffer (0.1 M, pH = 7.3) to get MAO-B enzymatic buffer with a concentration of 0.015 mg/mL. Kynuramine dihydrochloride (Servicebio, Wuhan, China) was used to get the assay buffer with a concentration of 40 μM for MAO-A and 20 μM for MAO-B. An aliquot of 97 μl of assay buffer and 3 μl of compound 14 at different concentrations (250, 500, and 1000 nM) were added into each well on the 96-well black plate. The plate was incubated at 37 °C for 20 min, and 80 μl of 2 N sodium hydroxide was added into each well to stop the reaction. The fluorescence of each well was measured using a microplate reader (Agilent Technologies Inc., CA) with an excitation at 310 nm and an emission at 380 nm.

MAO-B = biological target: T2, MAO-B (Homo sapiens, UniProt P27338); experiment: Inhibitory activity against MAO-B (kynuramine); format: biochemical; conditions: tested at 250, 500, and 1000 nM
T2 construct: purchased Servicebio (Wuhan, China)
Description: as §2

HepG2 cells [2] = experiment: Wound healing and transwell assays; format: cell-based, Human; conditions: 48 h, compared to control group
Description: Cancer cells were seeded into a 6-well plate for 12 h and each well was scratched using a sterile micropipette tip. Cellular debris was removed by PBS solution (Servicebio, Wuhan, China), and compound 14 at different concentrations (0, 0.5 μM, 1 μM, and 2 μM) was added. The 6-well plate was incubated for 48 h and photographed on a microscope.
Cancer cells were seeded into a Transwell 24-well plate (Corning, NY) and compound 14 was added. About 20% foetal bovine serum and 1% heat-inactivated foetal bovine serum were respectively added into the lower and upper chamber. The 24-well plate was incubated for 48 h at 37 °C, and it was washed by water. Cancer cells were fixed with cold ethanol for 20 min and stained with haematoxylin solution (Servicebio, Wuhan, China).

[3] = Toxicity in xenograft study: weight of mice, haematoxylin and eosin staining of organs; format: in vivo; conditions: 60 mg/kg by gavage every day for 21 days, vs control group
LSD1 = LSD1 (Homo sapiens, UniProt O60341); experiment: LSD1 screening assay kit (enzymatic activity); format: biochemical; set-up: purchased Cayman Chemical (Ann Arbor, MI); conditions: fluorescence, read-out: IC50 against LSD1
Description: After the incubation for 30 min at 37 °C, a mixture of horseradish peroxidase solution (20 μl) and fluorometric substrate solution (10 μl) was added to each well. Then, the 96-well plate was incubated for 15 min at 37 °C. Finally, the fluorescence of each well in the 96-well plate was measured at an emission wavelength of 590 nm and an excitation wavelength of 530 nm by a fluorimeter (Agilent Technologies Inc., Palo Alto, CA). Seclidemstat, a famous LSD1 inhibitor, was used as the control drug in this assay.

T1 sequence (P21397 whole entry, species assumed): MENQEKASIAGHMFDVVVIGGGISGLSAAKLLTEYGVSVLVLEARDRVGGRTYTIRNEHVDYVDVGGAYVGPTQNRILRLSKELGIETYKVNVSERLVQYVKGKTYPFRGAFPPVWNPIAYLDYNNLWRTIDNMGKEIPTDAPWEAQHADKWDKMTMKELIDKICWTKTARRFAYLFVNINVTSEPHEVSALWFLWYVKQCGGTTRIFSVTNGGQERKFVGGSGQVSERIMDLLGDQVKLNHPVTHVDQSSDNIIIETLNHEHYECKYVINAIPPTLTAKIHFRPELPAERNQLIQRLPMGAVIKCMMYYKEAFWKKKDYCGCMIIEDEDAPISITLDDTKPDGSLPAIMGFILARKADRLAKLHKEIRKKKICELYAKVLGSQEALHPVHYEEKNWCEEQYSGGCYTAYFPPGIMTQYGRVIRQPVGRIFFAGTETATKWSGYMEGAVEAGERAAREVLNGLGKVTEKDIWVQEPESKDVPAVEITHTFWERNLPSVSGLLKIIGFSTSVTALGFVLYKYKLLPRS
T2 sequence (P27338 whole entry, species assumed): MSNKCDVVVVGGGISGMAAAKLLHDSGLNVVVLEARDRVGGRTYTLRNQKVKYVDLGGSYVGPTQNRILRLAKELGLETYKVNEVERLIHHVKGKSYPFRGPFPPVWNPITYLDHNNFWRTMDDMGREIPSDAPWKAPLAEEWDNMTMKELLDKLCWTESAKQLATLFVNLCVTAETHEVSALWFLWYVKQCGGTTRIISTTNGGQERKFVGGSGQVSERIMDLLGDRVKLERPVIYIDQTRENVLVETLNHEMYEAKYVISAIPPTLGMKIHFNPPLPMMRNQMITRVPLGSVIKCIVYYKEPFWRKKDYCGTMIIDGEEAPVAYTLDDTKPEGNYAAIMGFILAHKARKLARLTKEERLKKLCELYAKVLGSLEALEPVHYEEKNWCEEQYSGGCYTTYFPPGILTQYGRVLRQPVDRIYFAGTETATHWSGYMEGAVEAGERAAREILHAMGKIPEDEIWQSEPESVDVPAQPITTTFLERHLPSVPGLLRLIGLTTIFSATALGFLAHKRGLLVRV

COc1ccc(CN(C(=O)CCN2C(=O)CCCC2=O)c2cc(OC)c(OC)c(OC)c2)cc1 [Compound 14, 3-(2,6-dioxopiperidin-1-yl)-N-(4-methoxybenzyl)-N-(3,4,5-trimethoxyphenyl)propanamide]
viability at 10 µM (C42B cells): 88% | viability at 10 µM (PC3 cells): 52% | viability at 10 µM (Caco-2 cells): 72.3% | viability at 10 µM (HepG2 cells [1]; 10 μM, 48 h, read-out: cell viability rate): 14.2% | IC50 (HepG2 cells [1]; CCK8, 48 h, 0-5 μM, read-out: IC50, antiproliferative activity): 930 nM | viability at 10 µM (MCF7 cells): 49.7% | viability at 10 µM (8505 C cells): 49.7% | viability at 10 µM (OVCAR-3 cells): 80.7% | viability at 10 µM (A549 cells): 41.1% | IC50 (HUH7 cells): 4370 nM | IC50 (MAO-A): > 1000 nM | IC50 (MAO-B): > 1000 nM | migration of HepG2 cells (HepG2 cells [2]): significantly suppresses the migration of HepG2 cells | body weight of nude mice [3]: did not show significant changes in body weight | haematoxylin and eosin staining of liver, spleen, lung, and kidney [3]: no morphological differences | IC50 (LSD1): 180 nM
